In PubChem BioAssay (NCI):
Several values for one entry are separate records, joined by “and”; a condition that tells them apart may be missing. Equal values may be shown once.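 Dose response: 5 concentrations. Exposure: 48 h. Format: 96-well plates. Endpoint: linear interpolation; highest concentration if not reached. GI50: concentration for 50% inhibition of growth. TGI: total growth inhibition.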

How the values were obtained:
Experiment in all cases: growth of human tumour cells (NCI), 48 h
[1] = tested on: NCI-H226 lung
[2] = tested on: U251 CNS
[3] = tested on: HT29 colon
[4] = tested on: SNB-75 CNS
[5] = tested on: A498 renal
[6] = tested on: NCI-H23 lung
[7] = tested on: RXF 393 renal
[8] = tested on: A549 NSCLC
[9] = tested on: IGROV1 ovarian
[10] = tested on: CAKI-1 renal
[11] = tested on: HL-60(TB) leukemia
[12] = tested on: OVCAR-4 ovarian
[13] = tested on: NCI/ADR-RES ovarian
[14] = tested on: MALME-3M melanoma
[15] = tested on: HCT-15 colon
[16] = tested on: DU-145 prostate
[17] = tested on: K-562 leukemia
[18] = tested on: NCI-H460 lung
[19] = tested on: HCT-116 colon
[20] = tested on: UACC-257 melanoma
[21] = tested on: HOP-62 NSCLC
[22] = tested on: MDA-N
[23] = tested on: EKVX NSCLC
[24] = tested on: SF-268 CNS
[25] = tested on: ACHN renal
[26] = tested on: SF-539 CNS
[27] = tested on: SK-MEL-5 melanoma
[28] = tested on: OVCAR-5 ovarian
[29] = tested on: MCF7 breast
[30] = tested on: SK-MEL-28 melanoma
[31] = tested on: MOLT-4 leukemia
[32] = tested on: BT-549 breast
[33] = tested on: M14 melanoma
[34] = tested on: SN12C renal
[35] = tested on: SNB-19 CNS
[36] = tested on: PC-3 prostate
[37] = tested on: KM12 colon
[38] = tested on: CCRF-CEM leukemia
[39] = tested on: RPMI-8226 leukemia
[40] = tested on: LOX IMVI melanoma
[41] = tested on: OVCAR-3 ovarian
[42] = tested on: SR leukemia
[43] = tested on: TK-10 renal
[44] = tested on: MDA-MB-231 breast
[45] = tested on: OVCAR-8 ovarian
[46] = tested on: HOP-92 NSCLC
[47] = tested on: COLO 205 colon
[48] = tested on: SK-MEL-2 melanoma
[49] = tested on: UO-31 renal
[50] = tested on: SF-295 CNS
[51] = tested on: MDA-MB-435
[52] = tested on: HCC-2998 colon
[53] = tested on: SW-620 colon
[54] = tested on: 786-0 renal
[55] = tested on: T-47D breast
[56] = tested on: SK-OV-3 ovarian
[57] = tested on: UACC-62 melanoma
[58] = tested on: HS 578T breast
[59] = tested on: NCI-H522 lung

In the case of C[Si](C)(OCCS(=O)(=O)O)OC(=C1S(=O)(=O)OCCOS1(=O)=O)c1cccc2ccccc12, the TGI [1] is reported as greater than 100 µM, the TGI [2] is reported as greater than 100 µM and the TGI [3] is reported as greater than 100 µM. It also gave a TGI [4] greater than 100 µM, a TGI [5] greater than 100 µM and a TGI [6] greater than 100 µM. For the same compound, the TGI [7] was greater than 100 µM, the TGI [8] was greater than 100 µM and the TGI [9] was greater than 100 µM. For the same compound, the TGI [10] was greater than 100 µM, the TGI [11] was 36.9 µM and the TGI [12] was greater than 100 µM. For the same compound, the TGI [13] was greater than 100 µM, the TGI [14] was greater than 100 µM and the TGI [15] was greater than 100 µM. It also gave a TGI [16] greater than 100 µM, a TGI [17] greater than 100 µM and a TGI [18] greater than 100 µM. For the same compound, the TGI [19] was greater than 100 µM, the TGI [20] was greater than 100 µM and the TGI [21] was greater than 100 µM. The TGI [22] was greater than 100 µM, the TGI [23] was greater than 100 µM and the TGI [24] was greater than 100 µM. It also gave a TGI [25] greater than 100 µM, a TGI [26] greater than 100 µM and a TGI [27] greater than 100 µM. It also gave a TGI [28] greater than 100 µM, a TGI [29] greater than 100 µM and a TGI [30] greater than 100 µM. For the same compound, the TGI [31] was greater than 100 µM, the TGI [32] was greater than 100 µM and the TGI [33] was greater than 100 µM. It also gave a TGI [34] greater than 100 µM, a TGI [35] greater than 100 µM and a TGI [36] greater than 100 µM. It also gave a TGI [37] greater than 100 µM, a TGI [38] greater than 100 µM and a TGI [39] greater than 100 µM. It also gave a TGI [40] greater than 100 µM, a TGI [41] greater than 100 µM and a TGI [42] greater than 100 µM. It also gave a TGI [43] greater than 100 µM, a TGI [44] greater than 100 µM and a TGI [45] greater than 100 µM. It also gave a TGI [46] greater than 100 µM, a TGI [47] greater than 100 µM and a TGI [48] greater than 100 µM. For the same compound, the TGI [49] was greater than 100 µM, the TGI [50] was greater than 100 µM and the TGI [51] was greater than 100 µM. For the same compound, the TGI [52] was greater than 100 µM, the TGI [53] was greater than 100 µM and the TGI [54] was greater than 100 µM.

In the case of S=C(N/N=C(/c1ccccc1)c1ccccn1)N1CCCCCC1, the GI50 [1] is reported as 0.02 µM, the TGI [1] is reported as 1.19 µM and 1.58 µM and the GI50 [2] is reported as 0.00287 µM. The TGI [2] was 1.22 µM and 1.27 µM, the GI50 [3] was 0.00724 µM and the TGI [3] was 3.41 µM and 1.8 µM. The GI50 [4] was 0.66 µM, the TGI [4] was 2.04 µM and 1.95 µM and the GI50 [5] was 0.00973 µM. The TGI [5] was 0.775 µM and 1.84 µM, the TGI [6] was 2.11 µM and the TGI [7] was 1.63 µM and 2.32 µM. The GI50 [8] was 0.0318 µM, the TGI [8] was 1.7 µM and 2.25 µM and the GI50 [9] was less than 0.001 µM. The TGI [9] was 1.06 µM and 1.98 µM, the GI50 [10] was 0.131 µM and the TGI [10] was 1.87 µM and 2.02 µM. The GI50 [11] was less than 0.001 µM, the TGI [11] was 4.13 µM and the TGI [12] was 2.04 µM. The GI50 [55] was less than 0.001 µM, the GI50 [13] was less than 0.001 µM and the TGI [13] was 1.28 µM and 2.54 µM. The GI50 [14] was 0.0392 µM, the TGI [14] was 1.96 µM and 2.01 µM and the GI50 [15] was 0.00327 µM. The TGI [15] was 2.05 µM and 1.53 µM, the GI50 [16] was 1.03 µM and the TGI [16] was 2.19 µM and 2.15 µM. For the same compound, the GI50 [56] was 0.00173 µM, the TGI [56] was 2.5 µM and 1.31 µM and the GI50 [57] was 0.39 µM. The TGI [57] was 3.73 µM and 0.78 µM, the GI50 [17] was less than 0.001 µM and the TGI [17] was 0.0117 µM. For the same compound, the GI50 [18] was 0.00355 µM, the TGI [18] was 1.58 µM and 1.89 µM and the GI50 [19] was less than 0.001 µM. The TGI [19] was 1.43 µM and 1.38 µM, the TGI [20] was 0.709 µM and the TGI [21] was 1.91 µM. For the same compound, the GI50 [22] was 0.217 µM, the TGI [22] was 2.32 µM and 1.72 µM and the GI50 [23] was 0.641 µM. The TGI [23] was 1.94 µM and 0.365 µM, the TGI [24] was 1.96 µM and 2.87 µM and the GI50 [25] was 0.00216 µM. For the same compound, the TGI [25] was 1.58 µM and 1.47 µM, the GI50 [58] was 1.54 µM and the TGI [58] was 7.58 µM and 7.59 µM. The GI50 [26] was 0.329 µM, the TGI [26] was 1.43 µM and 1.63 µM and the GI50 [27] was 0.0199 µM. The TGI [27] was 0.138 µM and 1.17 µM, the GI50 [28] was less than 0.001 µM and the TGI [28] was 2.11 µM. For the same compound, the GI50 [29] was less than 0.001 µM, the TGI [29] was 0.194 µM and 1.56 µM and the GI50 [30] was 0.863 µM and 0.639 µM. For the same compound, the TGI [30] was 2.41 µM and 2.15 µM, the GI50 [31] was less than 0.001 µM and the TGI [31] was 0.00191 µM. For the same compound, the TGI [32] was 2.07 µM, the TGI [33] was 1.47 µM and 0.26 µM and the TGI [34] was 1.91 µM. The GI50 [35] was 0.274 µM, the TGI [35] was 2.27 µM and 2.06 µM and the GI50 [59] was 1.28 µM. For the same compound, the TGI [59] was 3.48 µM and 1.13 µM, the GI50 [36] was less than 0.001 µM and the TGI [36] was 1.37 µM and 1.52 µM. The GI50 [37] was 0.0105 µM, the TGI [37] was 1.57 µM and 1.5 µM and the GI50 [38] was less than 0.001 µM. The GI50 [40] was 0.00892 µM and 0.0583 µM, the TGI [40] was 1.79 µM and 1.27 µM and the GI50 [41] was less than 0.001 µM. The TGI [41] was 1.76 µM and 1.23 µM, the TGI [43] was 1.52 µM and 1.86 µM and the GI50 [44] was less than 0.001 µM. For the same compound, the TGI [44] was 1.87 µM and 1.83 µM, the GI50 [45] was 0.00375 µM and the TGI [45] was 1.65 µM and 1.33 µM. The TGI [46] was 1.97 µM, the GI50 [47] was less than 0.001 µM and the GI50 [48] was 0.0269 µM. For the same compound, the TGI [48] was 2.12 µM and 2.14 µM, the TGI [49] was 1.75 µM and the GI50 [50] was 0.564 µM. The TGI [50] was 2.08 µM and 1.51 µM, the GI50 [51] was 0.043 µM and the TGI [51] was 1.59 µM and 1.58 µM. The GI50 [52] was 1.17 µM, the TGI [52] was 3.13 µM and 1.98 µM and the GI50 [53] was less than 0.001 µM. For the same compound, the TGI [53] was 1.43 µM and 1.68 µM, the GI50 [54] was less than 0.001 µM and the TGI [54] was 1.46 µM and 1.77 µM.
